This is an account of results in patent US10030256B2, “Method for producing lysophosphatidylethanolamine 18:1 from microorganism of Pseudomonas sp” (KOREA RESEARCH INSTITUTE OF BIOSCIENCE AND BIOTECHNOLOGY, priority 2015, dated 2018).

For one test, the system named is NPR1. The test can be described thus: NPR1 transition in transgenic plant carrying 35S::NPR1-eGFP. Format: in vivo, Arabidopsis thaliana. The conditions noted are these: 35S::NPR1-eGFP transgenic plants, observed 6 hours after spraying. Here is the method: NPR1 transition was determined by spraying LPE (100 nmol ml^−1 in 0.018% Silwet L-77), salicylic acid (0.3 mM in 0.018% Silwet L-77), or mock solution (0.018% Silwet L-77) to a transgenic plant carrying 35S::NPR1-eGFP, and observing, 6 hours later, the plant leaf with a laser scanning confocal microscope (Zeiss, Germany).

The test system of test [1] is PR1, PDF1.2, VSP1, JMT, ICS1, PAL1, ACS, LOX2. In words: Gene expression analysis (RT-PCR / real-time qPCR) in Arabidopsis leaves after treatment. Format: in vivo, Arabidopsis thaliana. Here is the method: Total RNA was extracted by using RNA isolator (Gibco, USA) from a sample which has been frozen with liquid nitrogen (i.e., 2 leaves per sample). Reverse transcription polymerase chain reaction (RT-PCR) and real-time quantitative polymerase chain reaction (real-time qPCR) were carried out by using gene-specific primers. For the analysis of a real-time quantitative polymerase chain reaction, Applied Biosystems 7900 Real-Time PCR SYSTEM™ was used. 2×SYBR® Green qPCR master mix was used for PCT amplification. The analyzed data were normalized first against the amount of ACTIN1 gene, and the fold increase of gene expression according to treatment was determined in comparison with a mock or non-treatment plant (1.0 fold). Reference gene as an alternative (AT1G13320) was obtained from the previous study (Hong et al., 2010, Plant Cell Physiol. 51:1694-1706). The gene-specific primers that are used in the present invention are as described in Table 1 and Table 2 below.
(§1) Every phospholipid was purchased from Avanti Polar Lipids Inc. (USA), and free fatty acids (16:0, 18:0 and 18:1) were purchased from Sigma Co. (USA). The solvent was dried under nitrogen gas stream, and the lipids were suspended therein according to ultrasonication so as to have final concentration of 100 nmol ml^−1 in 0.018% silwet L-77 (or 200 nmol ml^−1 in H2O).
(§2) The mature form of the recombinant PLA2α protein was produced in Escherichia coli which is fused with Dsbc protein. According to the method described before (Ryu et al., 2005, Biochem Biophys Acta. 1736:144-151), it was purified by affinity chromatography. The protein mixture in which PLA2α and Dsbc are separated from each other or Dsbc:PLA2α fusion protein (10 μgml^−1) was treated on the leaf of pla2α mutant by syringe infiltration, each in an amount of 0.5 μg. The enzyme activity of PLA2α was determined by in vitro analysis using substrate PE for a reaction mixture containing 10 mM Ca^2+ and 0.05% Triton X-100 in 50 mM Tris-HCl (pH 8.5). The mock-treated plant was infiltrated with a buffer (50 mM Tris-HCl, pH 8.0) or Dsbc protein. For inactivation of the PLA2α activity, recombinant PLA2α was pre-treated for 30 minutes at 30° C. with 2 μM manoalide as an irreversible inhibitor.
A general note: Real-time PCR tracks product formation cycle by cycle.

For another test, the target named is T1, PLA2α (Arabidopsis thaliana, UniProt Q8S8N6).
T1 construct: The mature form of the recombinant PLA2α protein was produced in Escherichia coli which is fused with Dsbc protein; DsbC; made in house; host or cells: Escherichia coli
T1 sequence (Q8S8N6 21-148): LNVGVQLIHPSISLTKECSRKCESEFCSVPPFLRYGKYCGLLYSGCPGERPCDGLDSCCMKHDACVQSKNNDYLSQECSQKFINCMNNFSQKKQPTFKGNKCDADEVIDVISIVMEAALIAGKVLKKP
The test can be described thus: In vitro analysis of PLA2 activity (inactivation by manoalide). Format: biochemical. The conditions noted are these: 2 μM manoalide, 30 minutes at 30° C. Here is the method: as §2

The test system of the next test is Pst. The test can be described thus: In vitro antibacterial activity against Pst. Format: cell-based, Pseudomonas syringae pv. tomato DC3000. Here is the method: In order to determine the antibacterial activity of PLA2α, 3 μg of recombinant PLA2α in free and mature form, which has been prepared according to the method by Ryu et al. (Biochem Biophys Acta. 2005, 1736:144-151), was added to 100 μl of a solution (Tris-HCl (50 mM, pH 8.0), 10 mM calcium chloride (CaCl2)) in which virulent Pst (5×10^5 CFU ml^1) is suspended. The bacteria sample was cultured in a weak shaking state at 28° C. for 6 hours. Thereafter, only the survived bacteria were titrated. As a mock control group, a suspension in which the bacteria are suspended in a solution having no PLA2α was used.

Test [2] relates to salicylic acid, ethylene, and jasmonic acid. In words: Quantification of salicylic acid, ethylene and jasmonic acid in Arabidopsis leaf. Format: in vivo, Arabidopsis thaliana. The text has this:
According to the method described before (Bowling et al., 1994, Plant Cell 6:1845-1857; Heck et al., 2003, Plant J. 36:342-352), salicylic acid, ethylene, and jasmonic acid were quantified from 0.5 g of a Arabidopsis leaf sample which has been sprayed with Pst-avrRpm1 suspension (1×10^8 CFU ml^−1 in 0.018% Silwet L-77) or LPE (100 nmol ml^−1 in 0.018% Silwet L-77 or 200 nmol ml^−1 in H2O).

The conditions of test [3]: suppression of aging; cited from earlier work.
In the next test the test system is Pst-avrRpm1. The test can be described thus: Recovery of local immune response in pla2α mutant plant by exogenous lipid after Pst-avrRpm1 inoculation. Format: in vivo, Arabidopsis thaliana. Particulars: for complementation of impaired local immunity of pla2α mutant plants (bacterial growth assay): FIG. 3B. Here is the method: Arabidopsis plant was cultivated at temperature of 22° C. and relative humidity of 60% with conditions including 16 hours of light period and 120 μmoles m^−2s^−1 of photon flux density. Because the plant defense response is age-dependent, fully mature leaves of the 4 week old plant were used for various analyses. Arabidopsis (Arabidopsis thaliana) mutants including pla2α, pla2α-II, sid2, npr1-5, rps2 and ein2 (Salk_099415, CS857021, Salk_042603, CS3724, Salk_087581, CS3071 and CS8072, respectively) were purchased from Arabidopsis Biological Resource Center, USA. Arabidopsis mutants eds1 and pad4-5 were obtained from S. A. Whitham (Iowa State University, USA) and J. E. Parker (Max Planck Institute for Plant Breeding Research, Germany), respectively. The transgenic line expressing NPR1-eGFP and NahG were obtained from X. Dong (Duke University, USA) and O. M. Park (Korea University, South Korea), respectively.
(§3) Pseudomonas syringae pv. tomato DC3000 (hereinbelow, Pst) and Pst-avrRpm1, which is avrRpm1-containing bacterial strain with no virulency, were obtained from Y. J. Kim (Korea University, South Korea). Pst-avrRpt2, which is avrRpt2-containing bacterial strain with no virulency, was obtained from J. M. Park (KRIBB, South Korea) and Pst-avrRps4, which is avrRps4-containing bacterial strain with no virulency, was obtained from R. Innes (Indiana University, USA). The bacterial strains were cultured and treated according to the method of Katagiri, et al. (Arabidopsis Book, 2002, 1:e0039).
as §1
(§4) Based on the analysis of pla2α mutant plants compared to wild type, we hypothesized that the defect in immune responses of the pla2α mutant may be due to the failure to generate the lipid products that mediate downstream immune responses. To test this hypothesis, we supplemented pla2α mutant with LPE18:1 1.5 h after inoculation of Pst-avrRpm1. […] Very importantly, LPE by itself renders local immunity in the absence of avirulent Pst (FIGS. 3C-3E). […] In addition, disease symptoms were much reduced in LPE-sprayed leaves compared to mock-treated ones (FIG. 3E).

A further test deals with virulent Pst. In words: Acquirement of local immunity against virulent Pst by treatment with only LPE. Format: in vivo, Arabidopsis thaliana. Particulars: for bacterial growth of virulent Pst: compared to mock treatment. Here is the method: as §3, §1, §4

Take `O=C(O)c1ccccc1O` [SA, salicylic acid, reference compound]: the “NPR1 translocation from the cytoplasm to the nucleus” value with NPR1 was “as did SA treatment”.
As to `CC1=C(CC/C(C)=C/CCC2=CC[C@H](C3=CC(=O)O[C@H]3O)O[C@H]2O)C(C)(C)CCC1` [manoalide, reference compound], the “PR1 gene expression by rPLA2α catalytically inactivated with manoalide” value in test [1] (rPLA2α pre-treated with PLA2 inhibitor manoalide) is “failed to induce PR1 gene expression”. Moreover, the “inactivation of the PLA2α activity” value at PLA2α is “Inactivation of the PLA2α activity caused by manoalide was confirmed”.
For “lysophosphatidylethanolamine 18:1 [LPE18:1]”, the “direct effect on bacterial growth in in vitro assays” value with Pst is “no direct effect on bacterial growth”. Moreover, in test [2] (Arabidopsis leaves), the JA levels result is given as “did not exhibit a significant increase” and the ethylene levels result is reported as “an increase in ethylene levels”. The “increase in SA levels” value in test [2] (Arabidopsis leaves treated with LPE18:1) came to 2.5 fold. The “biological efficacy compared with LPE 16:0 or LPE 18:0” value in test [3] is on record as “much higher biological efficacy”. Moreover, in test [1] (Arabidopsis leaves), the ACS gene expression entry is “exhibited ACS gene expression”, the LOX2 gene expression result is listed as “did not exhibit a significant increase in LOX2 gene expression” and the PAL1 expression entry is listed as “did not elevate PAL1 expression”. Further, the ICS1 gene expression result in test [1] (Arabidopsis leaves, 6 h post-treatment) was “displayed ICS1 gene expression”. The “PR1 gene expression in the sid2 mutant plants” value in test [1] (sid2 mutant) is on record as “failed to induce PR1 gene expression”. Moreover, the “expression of the PR genes PR1 and PDF1.2” value in test [1] (wild type leaf, LPE vs mock, absence of avirulent Pst) is “induced the expression of the PR genes PR1 and PDF1.2”. Further, the “recovery of phenotypic defect of pla2α mutant plant” value in the test with Pst-avrRpm1 (FIG. 3A) is recorded as “recovery of phenotypic defect”. In the test with Pst-avrRpm1, the “complementation of impaired local immunity of pla2α mutant plants (bacterial growth assay)” value is listed as “complemented by LPE”. Also, in the test with Pst-avrRpm1 (pla2α mutant supplemented 1.5 h after inoculation of Pst-avrRpm1), the “ability of the pla2α mutant to induce local immune responses” value was “restored the ability of the pla2α mutant to induce local immune responses”. Moreover, the “NPR1 translocation from the cytoplasm to the nucleus” value in the test on NPR1 was “activated NPR1 by inducing its translocation from the cytoplasm to the nucleus”. For the same compound, the disease symptoms entry in the test on virulent Pst (LPE-sprayed leaves compared to mock-treated) was “much reduced”. For the same compound, the “bacterial growth of virulent Pst” value in the test on virulent Pst (pla2α mutant plants) was “suppressed the bacterial growth”. In addition, in the test with virulent Pst (wild type plants), the “bacterial growth of virulent Pst” value is on record as “suppressed the bacterial growth”.
“lysophosphatidylglycerol [LPG, reference compound]”: the “complementation of impaired local immunity of pla2α mutant plants (bacterial growth assay)” value in the test on Pst-avrRpm1 is reported as “only a little”.
